The METLIN SMRT retention time set (Domingo-Almenara et al. 2019)

Experiment: gradient 5% acetonitrile 3 min, to 50% in 2 min, to 85% in 15 min, held 3 min, 100 µL/min
Settings: column: Zorbax Extend-C18 2.1 x 50 mm; eluents: water / acetonitrile, 0.1% formic acid
How it was run: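 The system's dead and dwell volumes were 40 μL and 900 μL, with a Zorbax Extend-C18 column (2.1 × 50 mm, 1.8 μm) run at 100 μL/min in water and acetonitrile containing 0.1% formic acid each. Pure standards were analyzed in mixtures of ~100 molecules by HPLC–quadrupole time-of-flight mass spectrometry in positive and negative ionization mode. Retention time was assigned from computationally picked, manually inspected adduct peaks.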

Compound | RP-LC retention time [s]
Cc1ccc(-n2c(=O)c3c(cc(C)n3C)n(CC(=O)Nc3ccc(Cl)cc3)c2=O)cc1 | 910
O=C([C@@H]1C[C@H](F)CN1S(=O)(=O)c1cc(F)cc(F)c1)N1CCc2ccccc2C1 | 961
CN(Cc1ccccc1)C(=O)C1CCN(S(=O)(=O)c2ccc3c(c2)sc(=O)n3C)CC1 | 852
Cc1ccnc(Nc2nc(-c3cc(C)ccc3C)cs2)c1 | 882
CCOC(=O)Cc1csc(NC(=O)C2CCN(c3cc(-n4ccnc4)ncn3)CC2)n1 | 576
O=C(NCc1csc(C2CCN(C(=O)c3ccccc3Cl)CC2)n1)C1CCC1 | 725
O=C(CN1C(=O)C(C(=O)N2CCCCCC2)Sc2ccccc21)N1CCN(c2ccccn2)CC1 (centres undefined) | 650
COc1ccc2c(c1)C(OC(C)C)=C(C(N)=O)S2=O (centres undefined) | 623
CCOc1ccc(NC(=O)C2CCN(S(C)(=O)=O)c3ccccc3O2)cc1 (centres undefined) | 877
CC(CCc1ccccc1)NC(=O)c1cc2n(n1)CC(C)(C(=O)NC1CCCC1)N(C)C2=O (centres undefined) | 844
CCn1ccc2sc(C)c(C(=O)NCc3ccccc3OC)c2c1=O | 796
COc1ccc(N2CCN(C(=O)CCC(=O)N3CCCn4nc(C)cc43)CC2)cc1 | 606
O=C(NC1(c2nc(-c3ccncc3)no2)CCCCC1)C1CCCC1 | 861
Cc1nnc(-c2cc(C)n(CC(=O)Nc3ccc(C)c(C)c3)c2C)o1 | 809
COc1ccc(NC(=O)CCc2c(C)nn(-c3cc(N(C)C)ncn3)c2C)cc1 | 733
CCOC(=O)c1[nH]c(C)c(CCC(=O)N2CCC(C(=O)NCCCc3ccccc3)CC2)c1C | 842
CCCN1C(=O)COc2ccc(-c3csc(NC(=O)c4ccc(OC)c(OC)c4)n3)cc21 | 971
Cc1ccc(-c2nc(-c3ccc(-c4noc(CNS(=O)(=O)c5ccccc5)n4)cc3)cs2)s1 | 1290
Cc1ccc(NC(=O)N2CCCC(Cn3c(C4CC4)nc4cccnc43)C2)cc1C (centres undefined) | 694
COc1ccc(CNC(=O)Cn2c(=O)c3cc(-c4cccs4)nn3c3ncccc32)cc1 | 816

Compound | RP-LC retention time [s]
CCN1C=C(C(=O)OCc2ccc(C)cc2)C(C)=NS1(=O)=O | 1030
Cc1cccc(CN2CCCN(c3ncccc3-c3nc(C4CC4)no3)CC2)c1 | 732
CCOc1ccc(NS(=O)(=O)c2cc(C(=O)N3CCN(c4cccc(C)c4)C(C)C3)n[nH]2)cc1 (centres undefined) | 899
O=C(NCC1CCS(=O)(=O)C1)c1nc2ccccc2s1 (centres undefined) | 659
Cc1cc(C(=O)N2CC3CC(C2)c2cccc(=O)n2C3)c(C)o1 (centres undefined) | 590
Cc1cc(C)c(CN2CCC3(CC2)CC3c2noc(C)n2)c(C)c1 (centres undefined) | 655
Cc1nc(-c2cccc(-c3noc(COc4ccc(F)cc4)n3)c2)cs1 | 1200
Fc1cc(F)cc(-c2noc3ncnc(N4CCN(c5ccccn5)CC4)c23)c1 | 678
Cc1ccc(S(=O)(=O)N2C(=O)CCC2C(=O)N2CCc3ccccc32)cc1C (centres undefined) | 1000
COc1ccc(-c2noc(Cc3nnc(-c4cc(C)cc(C)c4)o3)n2)cc1OC | 997
COc1cccc(CN2C[C@@H]3C(=O)N(CCN4CCc5ccccc5C4)C(=O)[C@@H]3C2)c1 | 590
Cc1nc(C(=O)NCC2CCCCC2)c(C)o1 | 922
COCc1nnc(-c2ccc(F)cc2)o1 | 740
CCOC(=O)C1CCCN(C(=O)CCCSc2ccc(NC(=O)C3CC3)nn2)C1 (centres undefined) | 726
CC(C)=C1SC(N2CCN(c3cccc(C(F)(F)F)c3)CC2)=NC1=O | 922
CCc1ccccc1NC(=O)Cn1c(=O)cc(-c2nc(C3CC3)no2)c2ccccc21 | 990
c1ccc2c(c1)cnc1ccccc12 | 710
Cn1cc(-c2noc(-c3ccc(F)cc3)n2)ccc1=O | 827
Cc1ccc(C)c(S(=O)(=O)N2CCc3c(c(-c4nnc(-c5ccccc5)o4)nn3C)C2)c1 | 1020
O=C(COc1ccccc1)NCc1c(-c2ccccc2)nc2n1CCS2 | 678

Compound | RP-LC retention time [s]
Cc1ccc(C(=O)N2CCCC(COc3ccc(C(=O)N4CCOCC4)cc3)C2)cc1 (centres undefined) | 793
COc1ccc(C(=O)Nc2ccc3c(c2)Sc2ncccc2C(=O)N3C(C)C)cc1 | 860
CC(=O)N1CCC(C(=O)Nc2cccc(OCc3nnc(-c4ccc(Cl)cc4)o3)c2)CC1 | 762
O=C(Nc1cccc(F)c1)N1CC(Oc2ccc(-c3nc(-c4ccccc4)no3)cc2)C1 | 1200
CCn1nc(CNC(=O)c2cccs2)c2ccccc21 | 798
COCCCNC(=O)N1CCCC(C)(C(=O)NCc2ccc(C)cc2)C1 (centres undefined) | 720
OC(CN1CCN(c2cccc(Cl)c2)CC1)C(c1ccccc1)c1ccccc1 (centres undefined) | 885
Cc1cccc(NC(=O)C2CCN(S(=O)(=O)c3cc(-c4noc(C)n4)cs3)CC2)n1 | 768
CC(C)C(=O)Nc1ccc(C(=O)NCCNS(=O)(=O)c2ccc3c(c2)OCCO3)cc1 | 661
O=C(NC1CCCCCC1)c1nnc(-c2ccc(S(=O)(=O)N3CCCC3)cc2)o1 | 1010
Cc1ccc2nc(-c3c(F)cccc3Cl)c(Nc3ccccc3C)n2c1 | 777
CCC(=O)N1CCCc2ccc(NC(=O)c3ccco3)cc21 | 729
CCc1nnc2nc(N3CCN(C(=O)COc4ccc(OC)cc4)CC3)cc(C)n12 | 613
CCN1CCCn2cc(S(=O)(=O)NCc3ccccc3Cl)cc2C1=O | 750
CC(NC(=O)C1CCCN(c2ccc(=O)n(-c3cccc(F)c3)n2)C1)c1ccccc1 (centres undefined) | 868
Cc1cccc(N2CCN(c3ccc4nnc(CCc5nc(-c6ccc(F)cc6)no5)n4n3)CC2)c1 | 1130
CCSc1nc2ccc(NS(=O)(=O)c3cc(F)ccc3F)cc2s1 | 1020
Nc1cc(-c2cccs2)nn1CCO | 562
CCc1nnc2nc(N3CCN(C(=O)c4cccc(N(C)C)c4)CC3)cc(C)n12 | 574

The next lines start with the values.

RP-LC retention time [s] | Compound
946 | Cc1ccc(NC(=O)c2nnc(CCCC(=O)NCCc3c[nH]c4ccc(C)cc34)s2)cc1
632 | O=S(=O)(Cc1cccc(F)c1)N1CCC(C2CCNC2)CC1 (centres undefined)
748 | COc1ccc(CNC(=O)C2(C)Oc3cccnc3N(C)C2=O)cc1 (centres undefined)
636 | Cc1cc(N2CCN(C)CC2)nc2ccc(NC(=S)N3CCC(Cc4ccccc4)CC3)cc12
758 | Cc1ccc(-n2cc3c(c(C(=O)N4CCCC4)c2=O)CC(C)(C)CC3=O)cc1
917 | N#Cc1ccc(-c2nc(-c3cccc(-c4ccn[nH]4)c3)no2)cc1
888 | Cc1nc(C2CC23CCN(S(=O)(=O)c2cccc(F)c2)CC3)no1 (centres undefined)
904 | COc1cccc(Cc2nc(CCS(=O)(=O)c3ccc(F)cc3)no2)c1
911 | CCCn1c(-c2cccc(C(=O)NCc3ccccc3C(F)(F)F)c2)nc2cccnc21
540 | c1ccc(CNc2nc(C3CC3)nc3c2CCC3)nc1
635 | COc1ccc(OC)c(S(=O)(=O)N2CCCC(C(=O)N3CCC(C(N)=O)CC3)C2)c1 (centres undefined)
831 | Brc1ccc(OCc2nnc3sc(-c4cccnc4)nn23)cc1
716 | Cc1ccc(NC(=O)N2CC(c3nc(C)no3)C3(CCOCC3)C2)cc1 (centres undefined)
930 | COc1ccc(C2CC(=O)N(c3ccc(F)c(C)c3)C(=O)C2)cc1
728 | CN(C)C(=O)C1c2ccccc2CC(=O)N1Cc1ccccc1 (centres undefined)
922 | CCOc1ccc(NS(=O)(=O)c2cc(C(=O)N3CCN(c4ccccc4F)CC3)n[nH]2)cc1
656 | O=C(Nc1ccc(F)cc1F)N1CCC(OC2CCN(Cc3ccccc3)CC2)CC1
720 | CCc1cc(=O)n(CC(=O)NCc2ccc(F)cc2F)c(N2CCOCC2)n1
640 | CN1C2CCCC1CC(NC(=O)c1nn(C)c3ccccc13)C2 (centres undefined)
750 | COc1ccc(C2(C)NC(=O)N(CC(=O)N3CCc4ccccc43)C2=O)cc1 (centres undefined)
926 | CCOCCCNC(=O)C1CCCN(c2nccnc2Oc2ccc(C)cc2)C1 (centres undefined)
1130 | CCOc1ccc(-c2noc(Cn3ccn4nc(-c5ccc(Cl)cc5)cc4c3=O)n2)cc1OC
1010 | Cc1cc(=O)n(CC(=O)N2CCN(c3ccc(F)cc3)CC2)c(-c2ccc(F)cc2)n1
1120 | CCCn1nnc2cc(-c3noc(COc4ccc(Cl)cc4)n3)ccc21
950 | CN1C(=O)c2cc(S(=O)(=O)Nc3ccc(Cl)cc3)ccc2Oc2cccnc21
662 | CCNc1cc(N2CCCC(CCC(=O)NCCC(C)C)C2)ncn1 (centres undefined)
607 | Cc1nc(N2CCOCC2)cc(N2CCN(C(=O)c3cccs3)CC2)n1
791 | Cc1ccc(Nc2nc(Cl)nc3ncn(C)c23)c(C)c1
764 | CN1c2ccc(F)cc2C(=O)NC12CCN(C(=O)Cc1ccccc1)CC2
810 | CC(C)(C)c1ccc(S(=O)(=O)Nc2cccc(C(=O)O)c2)cc1
